This experiment has as its target GST-hRIPK1 (8-327) (Homo sapiens (Human), UniProt Q13546). The experiment in a line: Fluorescent Polarization Binding (FP Binding) assay.
Sequence of GST-hRIPK1 (8-327) (Q13546 8-327): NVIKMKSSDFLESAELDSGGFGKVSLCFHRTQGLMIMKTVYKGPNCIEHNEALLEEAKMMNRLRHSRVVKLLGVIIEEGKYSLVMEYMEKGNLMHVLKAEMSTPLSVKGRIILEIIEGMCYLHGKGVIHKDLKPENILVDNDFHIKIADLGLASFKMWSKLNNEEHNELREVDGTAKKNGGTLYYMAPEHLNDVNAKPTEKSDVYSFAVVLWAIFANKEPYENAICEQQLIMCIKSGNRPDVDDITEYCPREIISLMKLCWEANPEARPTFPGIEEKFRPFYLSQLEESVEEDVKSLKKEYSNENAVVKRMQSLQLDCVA
For `N#Cc1cccc(Cn2cc(F)c(C(=O)N[C@H]3C(=O)Nc4c(F)cc(F)cc4[C@H]4C[C@H]43)n2)c1` [Example 170B, 1-(3-cyanobenzyl)-N-((1aR,2R,8bS)-5,7-difluoro-3-oxo-1,1a,2,3,4,8b-hexahydrobenzo[b]cyclopropa[d]azepin-2-yl)-4-fluoro-1H-pyrazole-3-carboxamide], the concentration for half-maximal inhibition (IC50) (usually the midpoint of a concentration-inhibition curve) was over 3000 nM.

`CN1C(=O)[C@H](NC(=O)c2nnc(Cc3ccccc3)[nH]2)CC2(CC2)c2cccnc21` [Example 125A, (R)-5-benzyl-N-(9′-methyl-8′-oxo-6′,7′,8′,9′-tetrahydrospiro[cyclopropane-1,5′-pyrido[2,3-b]azepin]-7′-yl)-4H-1,2,4-triazole-3-carboxamide] registered an IC50 of over 3000 nM.

Compound `O=C(N[C@@H]1CC2(CC2)c2cc(F)cc(F)c2NC1=O)c1nnc(Cc2ccccc2)[nH]1` [Example 103A, (R)-5-benzyl-N-(7,9-difluoro-2-oxo-1,2,3,4-tetrahydrospiro[benzo[b]azepine-5,1′-cyclopropan]-3-yl)-4H-1,2,4-triazole-3-carboxamide] came in with an IC50 of over 3000 nM.

`CN1C(=O)C(NC(=O)c2nnc(Cc3ccccc3)[nH]2)[C@@H]2C[C@@H]2c2ccccc21` (stereo in doubt) [Example 46B, 5-benzyl-N-((2S)-4-methyl-3-oxo-1,1a,2,3,4,8b-hexahydrobenzo[b]cyclopropa[d]azepin-2-yl)-4H-1,2,4-triazole-3-carboxamide] showed an IC50 of over 3000 nM.

For the compound `CN1C(=O)[C@H](NC(=O)c2nn(Cc3cccc(C#N)c3)cc2F)CCc2cccnc21` [Example 152A, (R)-1-(3-cyanobenzyl)-4-fluoro-N-(9-methyl-8-oxo-6,7,8,9-tetrahydro-5H-pyrido[2,3-b]azepin-7-yl)-1H-pyrazole-3-carboxamide], the IC50 is over 3000 nM.

Turning to `O=C(N[C@H]1CC2(CC2)c2cccnc2NC1=O)c1nnc(Cc2ccccc2)[nH]1` [Example 98B, (S)-5-benzyl-N-(8′-oxo-6′,7′,8′,9′-tetrahydrospiro[cyclopropane-1,5′-pyrido[2,3-b]azepin]-7′-yl)-4H-1,2,4-triazole-3-carboxamide], the IC50 lay within 0.1 to 1000 nM.

In the case of `CN1C(=O)[C@H](NC(=O)c2nnc(Cc3ccccc3)o2)C2(CC2)Oc2cccnc21` [Example 160B, (R)-5-benzyl-N-(5′-methyl-4′-oxo-4′,5′-dihydro-3′H-spiro[cyclopropane-1,2′-pyrido[3,2-b][1,4]oxazepin]-3′-yl)-1,3,4-oxadiazole-2-carboxamide], the IC50 was over 3000 nM.

`[2H]C([2H])([2H])N1C(=O)[C@H](NC(=O)c2nn(Cc3ccccc3)cc2F)[C@@H]2C[C@@H]2c2cc(S(C)(=O)=O)ccc21` [Example 183A, 1-benzyl-4-fluoro-N-((1aR,2R,8bS)-4-trideuteriomethyl-7-(methylsulfonyl)-3-oxo-1,1a,2,3,4,8b-hexahydrobenzo[b]cyclopropa[d]azepin-2-yl)-1H-pyrazole-3-carboxamide] displayed an IC50 of over 3000 nM.

Consider `Cc1cc2n(n1)CC[C@@H](NC(=O)c1nnc(Cc3ccccc3)[nH]1)C(=O)N2C` [Example 129B, (R)-5-Benzyl-N-(2,4-dimethyl-5-oxo-5,6,7,8-tetrahydro-4H-pyrazolo[1,5-a][1,3]diazepin-6-yl)-4H-1,2,4-triazole-3-carboxamide], for which the IC50 was over 3000 nM.

`O=C(N[C@@H]1COc2cccnc2-n2ccnc21)c1nnc(Cc2ccccc2)[nH]1` [Example 141A, (S)-5-Benzyl-N-(6,7-dihydroimidazo[1,2-d]pyrido[3,2-b][1,4]oxazepin-7-yl)-4H-1,2,4-triazole-3-carboxamide] yielded an IC50 of over 3000 nM.

`C[C@@H]1Oc2cccnc2N(C)C(=O)[C@H]1NC(=O)c1nn(Cc2ccccc2)cc1F` [Example 93, 1-benzyl-N-((2S,3S)-2,5-dimethyl-4-oxo-2,3,4,5-tetrahydropyrido[3,2-b][1,4]oxazepin-3-yl)-4-fluoro-1H-pyrazole-3-carboxamide] yielded an IC50 of 0.1 to 1000 nM.

Compound `Cn1cc2c(n1)CC[C@H](NC(=O)c1nnc(Cc3ccccc3)[nH]1)C(=O)N2` [Example 104B, (S)-5-benzyl-N-(2-methyl-5-oxo-2,4,5,6,7,8-hexahydropyrazolo[4,3-b]azepin-6-yl)-4H-1,2,4-triazole-3-carboxamide] yielded an IC50 of 0.1 to 1000 nM.

The compound `CN1C(=O)[C@@H](NC(=O)c2cc(C#N)n(Cc3ccc(F)cc3)n2)COc2cccnc21` [Example 159, (S)-5-cyano-1-(4-fluorobenzyl)-N-(5-methyl-4-oxo-2,3,4,5-tetrahydropyrido[3,2-b][1,4]oxazepin-3-yl)-1H-pyrazole-3-carboxamide] yielded an IC50 of 0.1 to 1000 nM.

Compound `CN1C(=O)[C@@H](NC(=O)c2nnc(C3(c4ccccc4)CC3)[nH]2)COc2cccnc21` [Example 106, (S)—N-(5-methyl-4-oxo-2,3,4,5-tetrahydropyrido[3,2-b][1,4]oxazepin-3-yl)-5-(1-phenylcyclopropyl)-4H-1,2,4-triazole-3-carboxamide] registered an IC50 of 0.1 to 1000 nM.

`O=C(N[C@H]1COc2cccnc2-n2ccnc21)c1nnc(Cc2ccccc2)[nH]1` [Example 141B, (R)-5-benzyl-N-(6,7-dihydroimidazo[1,2-d]pyrido[3,2-b][1,4]oxazepin-7-yl)-4H-1,2,4-triazole-3-carboxamide] showed an IC50 of 0.1 to 1000 nM.

In turn, `Cc1ncccc1Cn1cc(F)c(C(=O)N[C@@H]2CCc3nccnc3N(C)C2=O)n1` [Example 182A, (R)-4-fluoro-N-(5-methyl-6-oxo-6,7,8,9-tetrahydro-5H-pyrazino[2,3-b]azepin-7-yl)-1-((2-methylpyridin-3-yl)methyl)-1H-pyrazole-3-carboxamide] showed an IC50 of over 3000 nM.

Consider `Cc1cnn2c1N(C)C(=O)[C@H](NC(=O)c1nnc(Cc3ccccc3)[nH]1)CC2` [Example 131B, (R)-5-Benzyl-N-(3,4-dimethyl-5-oxo-5,6,7,8-tetrahydro-4H-pyrazolo[1,5-a][1,3]diazepin-6-yl)-4H-1,2,4-triazole-3-carboxamide], for which the IC50 was over 3000 nM.

For the compound `CN1C(=O)[C@@H](NC(=O)c2nnc(Cc3ccccc3)o2)CCc2nccnc21` [Example 190, (S)-5-benzyl-N-(5-methyl-6-oxo-6,7,8,9-tetrahydro-5H-pyrazino[2,3-b]azepin-7-yl)-1,3,4-oxadiazole-2-carboxamide], the IC50 lay in the range of 0.1 to 1000 nM.

For the compound `CN1C(=O)[C@@H](NC(=O)c2nn(Cc3cnn(C)c3)cc2F)COc2cccnc21` [Example 184, (S)-4-fluoro-1-((1-methyl-1H-pyrazol-4-yl)methyl)-N-(5-methyl-4-oxo-2,3,4,5-tetrahydropyrido[3,2-b][1,4]oxazepin-3-yl)-1H-pyrazole-3-carboxamide], the IC50 is 0.1 to 1000 nM.

Turning to `CN1C(=O)[C@@H](NC(=O)c2cnc(Cc3ccccc3)[nH]2)COc2cccnc21` [Example 108, (S)-2-benzyl-N-(5-methyl-4-oxo-2,3,4,5-tetrahydropyrido[3,2-b][1,4]oxazepin-3-yl)-1H-imidazole-5-carboxamide], the IC50 was 0.1 to 1000 nM.

For `Cc1nc2c(s1)CC[C@@H](NC(=O)c1nnc(Cc3ccccc3)[nH]1)C(=O)N2C` [Example 38B, (R)-5-benzyl-N-(2,4-dimethyl-5-oxo-5,6,7,8-tetrahydro-4H-thiazolo[4,5-b]azepin-6-yl)-4H-1,2,4-triazole-3-carboxamide], the IC50 is over 3000 nM.

Compound `CN1C(=O)[C@H](NC(=O)c2nnc(Cc3ccccc3)[nH]2)CCc2nn(C)cc21` [Example 105B, (R)-5-benzyl-N-(2,4-dimethyl-5-oxo-2,4,5,6,7,8-hexahydropyrazolo[4,3-b]azepin-6-yl)-4H-1,2,4-triazole-3-carboxamide] came in with an IC50 of over 3000 nM.

`CN1C(=O)[C@H](NC(=O)c2cc(Oc3ccccc3F)ccn2)[C@@H]2C[C@@H]2c2cccnc21` [Example 100B, 4-(2-fluorophenoxy)-N-((1aR,2R,8bS)-4-methyl-3-oxo-1,1a,2,3,4,8b-hexahydrocyclopropa[d]pyrido[2,3-b]azepin-2-yl)picolinamide] gave an IC50 of 0.1 to 1000 nM.

Take `CN1C(=O)[C@H](NC(=O)c2nnc(C3(c4ccccc4)CC3)o2)CCc2cccnc21` [Example 145B, (R)—N-(9-methyl-8-oxo-6,7,8,9-tetrahydro-5H-pyrido[2,3-b]azepin-7-yl)-5-(1-phenylcyclopropyl)-1,3,4-oxadiazole-2-carboxamide]: the IC50 was over 3000 nM.

Consider `Cc1cnn2c1N(C)C(=O)[C@@H](NC(=O)c1nnc(Cc3ccccc3)[nH]1)CC2` [Example 131A, (S)-5-Benzyl-N-(3,4-dimethyl-5-oxo-5,6,7,8-tetrahydro-4H-pyrazolo[1,5-a][1,3]diazepin-6-yl)-4H-1,2,4-triazole-3-carboxamide], for which the IC50 was 0.1 to 1000 nM.

In turn, `CN1C(=O)[C@@H](NC(=O)C2CN(Cc3ccccc3)C2)COc2ccccc21` [Example 33, (S)-1-benzyl-N-(5-methyl-4-oxo-2,3,4,5-tetrahydrobenzo[b][1,4]oxazepin-3-yl) azetidine-3-carboxamide] came in with an IC50 of over 10000 nM.

As to `CN1C(=O)[C@H](NC(=O)c2nnc(Cc3ccccc3)o2)[C@@H]2C[C@@H]2c2cccnc21` [Example 157A, 5-benzyl-N-((1aR,2R,8bS)-4-methyl-3-oxo-1,1a,2,3,4,8b-hexahydrocyclopropa[d]pyrido[2,3-b]azepin-2-yl)-1,3,4-oxadiazole-2-carboxamide], the IC50 is over 3000 nM.

`CN1C(=O)[C@H](NC(=O)c2nnc(Cc3ccccc3)[nH]2)CCc2c1cnn2C` [Example 101A, (R)-5-benzyl-N-(1,4-dimethyl-5-oxo-1,4,5,6,7,8-hexahydropyrazolo[4,3-b]azepin-6-yl)-4H-1,2,4-triazole-3-carboxamide]: the IC50 is over 3000 nM.

For `CN1C(=O)[C@H](NC(=O)c2nn(Cc3ccccc3)cc2F)CCc2c1cnn2C` [Example 114B, (R)-1-benzyl-N-(1,4-dimethyl-5-oxo-1,4,5,6,7,8-hexahydropyrazolo[4,3-b]azepin-6-yl)-4-fluoro-1H-pyrazole-3-carboxamide], the IC50 was over 3000 nM.

Compound `C[C@@H]1Oc2cccnc2N(C)C(=O)[C@H]1NC(=O)c1nnc(Cc2ccccc2)[nH]1` [Example 95, 5-benzyl-N-((2S,3S)-2,5-dimethyl-4-oxo-2,3,4,5-tetrahydropyrido[3,2-b][1,4]oxazepin-3-yl)-4H-1,2,4-triazole-3-carboxamide] had an IC50 of over 3000 nM.

Source of the values: US10604535B2, “Compounds, compositions and methods” (Denali Therapeutics Inc., priority 2016, dated 2020).
